# “And” between values parts separate entries of the source, which are not always exact repeats. Identical values can stand only once. “Also recorded” adds a separate entry of the source. Like-named read-outs stand apart in the source and are kept apart here. Square brackets hold non-standard residues; d marks the D form. Peptide text beside a SMILES is read from it. pY = N[C@@H](Cc1ccc(OP(=O)(O)O)cc1)C(=O)O; Hyp = O=C(O)[C@@H]1C[C@@H](O)CN1; Tic = O=C(O)[C@@H]1Cc2ccccc2CN1; Tle = CC(C)(C)[C@H](N)C(=O)O
# What was measured:
# [1] = molecular target: T1, plasma DPIV activity (Rattus norvegicus, UniProt P14740); assay: DPIV inhibiting activity after intravasal and oral administration to Wistar rats; type: in vivo; conditions: 100 mg/kg; for In vivo DPIV-inhibition at tmax, i.v. (%): intra-vasal (intra-arterial); for In vivo DPIV-inhibition at tmax, p.o. (%): oral
# T1 construct: determination of plasma DPIV activity consisted of 80 μl reagent and 20 μl plasma sample; from tissue; host or cells: plasma of Wistar rats after i.v. or p.o. dosing
# T1 sequence (P14740 37-767 limits assumed): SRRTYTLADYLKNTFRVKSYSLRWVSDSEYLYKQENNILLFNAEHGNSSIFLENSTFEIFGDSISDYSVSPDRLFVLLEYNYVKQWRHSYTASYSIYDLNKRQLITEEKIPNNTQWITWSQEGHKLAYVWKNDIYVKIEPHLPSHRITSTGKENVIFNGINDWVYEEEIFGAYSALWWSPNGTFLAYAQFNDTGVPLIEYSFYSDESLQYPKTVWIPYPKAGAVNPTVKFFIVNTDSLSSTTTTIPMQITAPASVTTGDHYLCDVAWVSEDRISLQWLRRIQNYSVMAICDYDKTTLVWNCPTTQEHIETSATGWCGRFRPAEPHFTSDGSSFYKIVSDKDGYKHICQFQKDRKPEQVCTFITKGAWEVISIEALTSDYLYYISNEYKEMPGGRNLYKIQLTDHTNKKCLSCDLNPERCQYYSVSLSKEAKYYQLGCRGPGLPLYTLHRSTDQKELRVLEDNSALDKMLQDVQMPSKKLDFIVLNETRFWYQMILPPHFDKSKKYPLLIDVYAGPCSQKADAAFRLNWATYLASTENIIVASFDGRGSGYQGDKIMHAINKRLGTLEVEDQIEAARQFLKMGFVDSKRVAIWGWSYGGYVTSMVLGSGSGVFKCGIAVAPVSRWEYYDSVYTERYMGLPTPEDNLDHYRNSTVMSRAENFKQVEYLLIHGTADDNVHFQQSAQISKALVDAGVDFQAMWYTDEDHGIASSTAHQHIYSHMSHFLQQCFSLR
# Procedure: Male Wistar rats (Shoe: Wist(Sho)) with a body weight ranging between 250 and 350 g were purchased from Tierzucht Schönwalde (Schönwalde, Germany).
# After overnight fasting, 100 μl samples of heparinised arterial blood were collected at −30, −5, and 0 min. […] In the case of oral administration, an additional volume of 1 ml saline was injected into the arterial catheter. In the case of intra-arterial administration, the catheter was immediately flushed with 30 μl saline and an additional 1 ml of saline was given orally via the feeding tube.
# All blood samples were collected into ice cooled Eppendorf tubes (Eppendorf-Netheler-Hinz, Hamburg, Germany) filled with 10 μl 1M sodium citrate buffer (pH 3.0) for plasma DPIV activity measurement. Eppendorf tubes were centrifuged immediately (12000 rpm for 2 min, Hettich Zentrifuge EBA 12, Tuttlingen; Germany): The plasma fractions were stored on ice until analysis or were frozen at −20° C. until analysis. All plasma samples were labelled with the following data: • Code number • Animal Number • Date of sampling • Time of sampling Analytical Methods
# The assay mixture for determination of plasma DPIV activity consisted of 80 μl reagent and 20 μl plasma sample. […] The DPIV activity was expressed in mU/ml.
# [2] = molecular target: T2, dipeptidyl peptidase IV from porcine kidney (Sus scrofa, UniProt P22411); assay: Ki determination, DPIV inhibition (glycylprolyl-4-nitroaniline); type: biochemical; conditions: HEPES pH7.6, 30° C.
# T2 construct: dipeptidyl peptidase IV from porcine kidney; from tissue; host or cells: porcine kidney
# T2 sequence (P22411 whole entry): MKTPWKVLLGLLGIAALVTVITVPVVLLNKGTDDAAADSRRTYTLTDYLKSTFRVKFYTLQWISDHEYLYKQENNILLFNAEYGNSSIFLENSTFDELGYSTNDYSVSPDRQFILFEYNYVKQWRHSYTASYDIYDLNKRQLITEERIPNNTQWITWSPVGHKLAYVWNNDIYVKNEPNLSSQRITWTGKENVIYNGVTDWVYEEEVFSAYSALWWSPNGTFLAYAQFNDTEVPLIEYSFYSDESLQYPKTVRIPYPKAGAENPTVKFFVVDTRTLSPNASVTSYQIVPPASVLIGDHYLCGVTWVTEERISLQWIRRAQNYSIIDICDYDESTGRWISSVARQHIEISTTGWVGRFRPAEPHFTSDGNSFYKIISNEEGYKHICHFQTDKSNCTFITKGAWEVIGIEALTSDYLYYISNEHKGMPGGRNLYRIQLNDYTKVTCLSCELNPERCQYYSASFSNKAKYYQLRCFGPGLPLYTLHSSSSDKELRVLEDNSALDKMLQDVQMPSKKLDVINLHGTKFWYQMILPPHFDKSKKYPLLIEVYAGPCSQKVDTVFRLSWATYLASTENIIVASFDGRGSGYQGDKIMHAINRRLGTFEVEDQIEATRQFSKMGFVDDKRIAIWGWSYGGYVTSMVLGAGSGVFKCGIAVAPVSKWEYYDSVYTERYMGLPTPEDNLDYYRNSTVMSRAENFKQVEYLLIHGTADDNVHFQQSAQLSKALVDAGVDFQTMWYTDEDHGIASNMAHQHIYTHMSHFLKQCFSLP
# [3] = molecular target: purified porcine DPIV (Sus scrofa, UniProt P22411); assay: Determination of IC50 values, DPIV (Gly-Pro-pNA); type: biochemical; conditions: Gly-Pro-pNA 0.4 mM, HEPES pH7.6, 30° C.
# Chain of purified porcine DPIV (P22411 whole entry): as above
# Procedure: 100 μl inhibitor stock solution were mixed with 100 μl buffer (HEPES pH7.6) and 50 μl substrate (Gly-Pro-pNA, final concentration 0.4 mM) and preincubated at 30° C. Reaction was started by addition of 20 μl purified porcine DPIV. Formation of the product pNA was measured at 405 nm over 10 min using the HTS 7000Plus plate reader (Perkin Elmer) and slopes were calculated. The final inhibitor concentrations ranged between 1 mM and 30 nM. For calculation of IC50 GraFit 4.0.13 (Erithacus Software) was used.
# [4] = molecular target: T3, porcine dipeptidyl peptidase II (DP II) (Sus scrofa, UniProt A0A5G2QK18); assay: Inhibition of DPIV-like enzymes, dipeptidyl peptidase II; type: biochemical; conditions: lysylalanylaminomethylcoumarine, 30° C.; read-out: Ki against porcine dipeptidyl peptidase II
# T3 construct: The enzyme used was purified from porcine kidney; from tissue; host or cells: porcine kidney
# T3 sequence (A0A5G2QK18 28-502): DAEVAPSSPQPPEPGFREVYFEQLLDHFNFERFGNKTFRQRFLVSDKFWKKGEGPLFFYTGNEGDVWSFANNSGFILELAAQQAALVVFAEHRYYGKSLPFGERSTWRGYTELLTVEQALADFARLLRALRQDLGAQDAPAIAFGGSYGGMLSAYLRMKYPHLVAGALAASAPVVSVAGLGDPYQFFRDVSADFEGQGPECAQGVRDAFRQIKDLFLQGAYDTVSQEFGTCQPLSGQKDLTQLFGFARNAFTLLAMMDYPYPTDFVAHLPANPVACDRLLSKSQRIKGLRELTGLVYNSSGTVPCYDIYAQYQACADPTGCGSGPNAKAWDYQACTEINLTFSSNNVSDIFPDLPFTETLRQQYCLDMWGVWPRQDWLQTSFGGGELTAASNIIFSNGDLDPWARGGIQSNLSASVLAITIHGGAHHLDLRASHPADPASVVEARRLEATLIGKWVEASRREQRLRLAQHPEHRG
# Procedure: DP II (3.4.14.2) releases N-terminal dipeptides from oligopeptides if the N-terminus is not protonated (McDonald, J. K., Ellis, S. & Reilly, T. J., 1966, J. Biol. Chem., 241, 1494-1501). Pro and Ala in Pi-position are preferred residues. The enzyme activity is described as DPIV-like activity, but DP II has an acidic pH-optimum. The enzyme used was purified from porcine kidney.
# 100 μl glutaminyl pyrrolidine or glutaminyl thiazolidine in an concentration range of 1*10^−4 M-5*10^−8 M were admixed with 100 μl μl buffer solution (40 mM HEPES, pH7.6, 0.015% Brij, 1 mM DTT), 50 μl lysylalanylaminomethylcoumarine solution (5 mM) and 20 μl porcine DP II (250fold diluted in buffer solution). Fluorescence measurement was performed at 30° C. and λexiatation=380 nm, λemission=465 nm for 25 min using a plate reader (HTS7000plus, Applied Biosystems, Weiterstadt, Germany).
# [5] = molecular target: T4, PepT1 (Oryctolagus cuniculus, UniProt P36836); assay: Inhibition of 3H-D-Phe-Ala binding to PepT1-expressing P. pastoris cells
# T4 construct: expressed in transfected cells; host or cells: Pichia pastoris cells expressing PepT1 (per the assay description)
# T4 sequence (P36836 1-707): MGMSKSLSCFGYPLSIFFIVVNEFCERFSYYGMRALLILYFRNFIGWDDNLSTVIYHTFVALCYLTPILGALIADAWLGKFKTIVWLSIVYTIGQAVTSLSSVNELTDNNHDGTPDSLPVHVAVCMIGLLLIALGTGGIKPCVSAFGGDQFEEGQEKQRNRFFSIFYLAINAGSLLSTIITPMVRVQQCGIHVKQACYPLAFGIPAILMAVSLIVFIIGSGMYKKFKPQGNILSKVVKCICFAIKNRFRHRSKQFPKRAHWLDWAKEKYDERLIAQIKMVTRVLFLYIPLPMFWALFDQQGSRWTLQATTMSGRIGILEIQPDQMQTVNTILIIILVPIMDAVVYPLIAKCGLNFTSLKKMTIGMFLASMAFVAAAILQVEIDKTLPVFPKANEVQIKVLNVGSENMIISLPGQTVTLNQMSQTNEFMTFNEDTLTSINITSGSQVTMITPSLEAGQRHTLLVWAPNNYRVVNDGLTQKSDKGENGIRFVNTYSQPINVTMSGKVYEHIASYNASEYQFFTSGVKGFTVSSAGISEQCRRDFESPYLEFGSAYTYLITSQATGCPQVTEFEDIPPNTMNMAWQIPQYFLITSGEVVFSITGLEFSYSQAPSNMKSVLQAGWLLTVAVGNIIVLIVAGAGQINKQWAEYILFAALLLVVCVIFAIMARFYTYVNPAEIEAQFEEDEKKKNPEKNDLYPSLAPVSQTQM
# Description: (§1) Side chain-modified glutamyl thiazolidines having a structure H-Glu(X)-Thia were synthesised, with polyethylene glycol or glycine oligomers of various chain lengths being used as X (see Method A of example for description of synthesis). The binding characteristics of those derivatives and their transportability by the peptide transporter PepT1 were investigated.
# [6] = tested on: PepT1; assay: Transport at PepT1-expressing oocytes of X. leavis, two-electrode voltage clamp; type: cell-based
# Description: as §1
# [7] = tested on: MADB106 tumor cells; assay: In vivo cancer cell adhesion assay (CFSE labeled cells in lungs); parameters: species or system F344 rats; conditions: wild-type F344USA rats, single injection i.v. + i.p., 30 min after inoculation, vs. saline; fumarate
# Procedure: Cell culture, injection of tumor cells, dissection of the animals and immunohistochemistry were conducted as previously described (von Hörsten et al., 2000). In brief, 1×10^6 MADB106 tumor cells derived from log phase of tumor growth were injected via the lateral tail vein and lungs removed at different time points thereafter. For in situ quantification of tumor cells at early time points after injection (30 min), cells were vital dye stained using the fluorescein derivate 5- (and -6)-carboxyfluorescein diacetate succinimidyl ester (CFSE) before injection.
# Control sections were included in which one or both primary antibodies were omitted.
# Vital dye (Carboxyfluorescein; CFSE) labeling of MADB106 tumor cells allows the quantification of tumor cells and NK cells in thick sections of lung tissue by stereology in situ (von Hörsten et al, 2000). In the present study we produced thin sections (8 μm) of the same lungs (n=10) and performed additional microscopic counting by image analysis of DE1 positive cells. This was done to further simplify the previously validated stereological quantification technique. Therefore, in the present study, the assessment of DE1 positive tumor cells in lung tissue from different substrains 30 min after tumor inoculation was carried out using image analysis approach. […] Each right upper lobe of the lungs was sectioned at 6 randomly chosen non-adjacent levels. From each level, three sections were evaluated.
Ki [2],IC50 [3] [µM],Compound,also measured
,,"Br.CC(=O)OCC(=O)[C@@H]1CCCN1C(=O)[C@@H](NC(=O)[C@H](C)N)C(C)C [Ala-Val-Pro-acyloxy methyl ketone, H-Ala-Val-Pro-CH2O—C(O)CH3.HBr]","In vivo DPIV-inhibition at tmax, i.v. (%) [1]: 89%; In vivo DPIV-inhibition at tmax, p.o. (%) [1]: 86%"
,,"Br.CC(C)[C@H](NC(=O)[C@H](C)N)C(=O)N1CCC[C@H]1C(=O)COC(=O)c1ccccc1 [Ala-Val-Pro-benzoyl-methyl ketone, H-Ala-Val-Pro-CH2O—C(O)Ph.HBr]","In vivo DPIV-inhibition at tmax, i.v. (%) [1]: 97%; In vivo DPIV-inhibition at tmax, p.o. (%) [1]: 76%"
1.21 µM,527,"NC(=O)CCC(N)C(=O)N1CCSC1 (stereo not drawn) [Gln-Thia, glutaminyl thiazolidine]",Ki [4]: 10.7 µM
12 µM,,NC(=O)CC(N)C(=O)N1CCCC1 (stereo not drawn) [H-Asn-pyrrolidine],
3.5 µM,,NC(=O)CC(N)C(=O)N1CCSC1 (stereo not drawn) [H-Asn-thiazolidine],
13 µM,,NC(CC(=O)NO)C(=O)N1CCCC1 (stereo not drawn) [H-Asp(NHOH)-pyrrolidine],
8.8 µM,,NC(CC(=O)NO)C(=O)N1CCSC1 (stereo not drawn) [H-Asp(NHOH)-thiazolidine],
2.9 µM,,NC(CC(=O)O)C(=O)N1CCSC1 (stereo not drawn) [H-Asp-thiazolidine],
2.8 µM,,NC(CCC(=O)NO)C(=O)N1CCCC1 (stereo not drawn) [H-Glu(NHOH)-pyrrolidine],
1.7 µM,,NC(CCC(=O)NO)C(=O)N1CCSC1 (stereo not drawn) [H-Glu(NHOH)-thiazolidine],"EC50 [5]: 3180 µM; Imax, inward currents generated by the transport [6]: 42 ± 11 nA"
0.62 µM and 0.61 µM,,N[C@@H](CCC(=O)O)C(=O)N1CCSC1 [H-Glu-thiazolidine],"EC50 [5]: 1100 µM; Imax, inward currents generated by the transport [6]: 35 ± 13 nA"
3.5 µM,,NC(Cc1c[nH]cn1)C(=O)N1CCCC1 (stereo not drawn) [H-His-pyrrolidine],
1.8 µM,,NC(Cc1c[nH]cn1)C(=O)N1CCSC1 (stereo not drawn) [H-His-thiazolidine],
,,CCC(C)C(N)C(=O)N1CCSC1 (stereo not drawn) [H-Ile-Thia],"EC50 [5]: 980 µM; Imax, inward currents generated by the transport [6]: 25 ± 8 nA"
0.27 µM,,CC(C)C(N)C(=O)N1CCSC1 (stereo not drawn) [H-Val-thiazolidine],
,6000,CC[C@H](C)[C@H](N)C(=O)N1C[C@H](O)C[C@H]1C(=O)N[C@H](C(=O)O)[C@@H](C)CC [Ile-Hyp-Ile] (H-Ile-[Hyp]-Ile-OH; N-terminus and C-terminus assumed),
56.8 µM,293,CCC(C)C(N)C(=O)C1CCCCC1 (stereo not drawn) [Ile-cyclohexyl ketone],
,38.2,"CCC(C)C(N)C(=O)C1CCCC1 (stereo not drawn) [Ile-cyclopentyl ketone, 1-cyclopentyl-3-methyl-1-oxo-2-pentanaminium chloride]",
,1000,CC[C@H](C)[C@H](NC(=O)[C@@H]1CCCN1C(=O)[C@@H]1Cc2ccccc2CN1)C(=O)O [Tic-Pro-Ile] (H-[Tic]-Pro-Ile-OH; N-terminus and C-terminus assumed),
0.0476 µM,0.579,CC(=O)C1CCCN1C(=O)C(N)C(C)C (stereo not drawn) [Val-Pro-methyl ketone],
,67.5,CC(C)[C@H](N)C(=O)N1CCC[C@H]1C(=O)N[C@H](C(=O)O)C(C)(C)C [Val-Pro-t-butyl-Gly] (H-Val-Pro-[Tle]-OH; N-terminus and C-terminus assumed),
13.1 µM,49,CC(C)C(N)C(=O)C1CCCC1 (stereo not drawn) [Val-cyclopentyl ketone],
273 µM,273,CC(C)(C)C(N)C(=O)C1CCCCC1 (stereo not drawn) [t-butyl-Gly-cyclohexyl ketone],
,,CC(C)[C@H](N)C(=O)N1CCCC1.O=C(O)/C=C/C(=O)O [valyl pyrrolidine fumarate],"tumor cell adhesion, CFSE positive cells in lung tissue [7]: no significant effect; also recorded: significant differences vs. saline treated controls were not found"
3.11 µM,,H-Glu(PEG)-Thia,"EC50 ([5]; read-out: EC50, concentration inhibiting binding of 3H-D-Phe-Ala to PepT1-expressing P. pastoris cells by 50%): > 10000 µM"
0.00105 µM,0.0102,Val-Pro-acyloxy methyl ketone,
0.0373 µM,0.138,Val-Pro-benzothiazol methyl ketone,
0.000536 µM,0.0179,Val-Pro-benzoyl methyl ketone,
,1000,Val-cyclohexyl ketone,

Compound,Ki [2],IC50 [3] [µM],also measured
NC(CC(=O)O)C(=O)N1CCCC1 (stereo not drawn) [H-Asp-pyrrolidine],0.014 µM,,
N[C@@H](CCC(=O)NCC(=O)NCC(=O)NCC(=O)O)C(=O)N1CCSC1 [H-Glu(Gly3)-Thia],0.0192 µM,,EC50 [5]: 8540 µM
N[C@@H](CCC(=O)NCC(=O)NCC(=O)NCC(=O)NCC(=O)NCC(=O)O)C(=O)N1CCSC1 [H-Glu(Gly5)-Thia],0.0993 µM,,EC50 [5]: > 10000 µM
CCC(C)C(N)C(=O)N1CC1 (stereo not drawn) [H-Ile-azididine],3.1 µM,,
CC[C@H](C)[C@H](NC(=O)[C@@H]1CCCN1C(=O)[C@@H](N)Cc1ccc(OP(=O)(O)O)cc1)C(=O)O [Tyr(P)-Pro-Ile] (H-[pY]-Pro-Ile-OH; N-terminus and C-terminus assumed),,2000,"In vivo DPIV-inhibition at tmax, p.o. (%) [1]: no inhibition"
